This note sets out measurements from patent publication US6342504B1, “Aromatic heterocyclic derivatives as enzyme inhibitors” (priority 1994, dated 2002).

Where a name gives a salt, the structure may show the parent alone.

One assay concerns the target human plasmin (Homo sapiens, UniProt P00747). Put plainly: biochemical. The settings on record: 30 minute incubation; read-out: IC50 Plasmin (Table 2). How it is done: The ability of compounds of the present invention to act as a selective inhibitor of thrombin catalytic activity was assessed by determining the concentration of compound which inhibited the activity of this enzyme by 50%, (IC50), and comparing this value to that determined for all or some of the following related serine proteases: recombinant tissue plasminogen activator (rt-PA), plasmin, activated protein C, chymotrypsin, factor Xa and trypsin.
(§1) The buffer used for all assays was HBSA (10 mM HEPES, pH 7.5, 150 mM sodium chloride, 0.1% bovine serum albumin).
The assay for IC50 determinations was conducted by combining in appropriate wells of a Corning microtiter plate, 50 microliters of HBSA, 50 microliters of the test compound at a specified concentration (covering a broad concentration range) diluted in HBSA (or HBSA alone for VO (uninhibited velocity) measurement), and 50 microliters of the enzyme diluted in HBSA. Following a 30 minute incubation at ambient temperature, 50 microliters of the substrate at the concentrations specified below were added to the wells, yielding a final total volume of 200 microliters. The initial velocity of chromogenic substrate hydrolysis was measured by the change in absorbance at 405 nm using a Thermo Max® Kinetic Microplate Reader over a 5 minute period in which less than 5% of the added substrate was utilized. The concentration of added inhibitor which caused a 50% decrease in the initial rate of hydrolysis was defined as the IC50 value.
Plasmin catalytic activity was determined using the chromogenic substrate, S-2366 [L-pyroglutomyl-L-prolyl-L-arginine-p-nitroaniline hydrochloride], which was obtained from Pharmacia-Upjohn. The substrate was made up in deionized water followed by dilution in HBSA prior to the assay in which the final concentration was 300 micromolar (about 2.5-times Km). Purified human plasmin was obtained from Enzyme Research Laboratories, Inc. The enzyme was diluted into HBSA prior to assay in which the final concentration was […].

In the next assay the target is T1, human aPC (Homo sapiens, UniProt P04070).
T1 construct: purchased Hematologic Technologies, Inc
T1 sequence (P04070 43-197): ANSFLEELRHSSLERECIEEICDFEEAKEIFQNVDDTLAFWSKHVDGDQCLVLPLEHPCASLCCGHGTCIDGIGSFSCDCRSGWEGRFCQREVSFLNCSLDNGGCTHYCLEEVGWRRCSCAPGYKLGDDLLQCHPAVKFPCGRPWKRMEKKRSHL
T1 sequence (P04070 212-461): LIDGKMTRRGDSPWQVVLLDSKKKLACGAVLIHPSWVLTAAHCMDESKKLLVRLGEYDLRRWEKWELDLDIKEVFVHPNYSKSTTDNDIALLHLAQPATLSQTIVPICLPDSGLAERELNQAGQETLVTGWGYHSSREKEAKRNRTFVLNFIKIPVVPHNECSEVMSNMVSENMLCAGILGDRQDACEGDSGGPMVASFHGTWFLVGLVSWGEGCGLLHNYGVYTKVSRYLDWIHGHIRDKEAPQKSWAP
The assay is described as follows: biochemical. Conditions: 30 minute incubation; 1.0 nM enzyme; read-out: IC50 aPC (Table 2). Here is the method: as §1
Following a 30 minute incubation at ambient temperature, 50 microliters of the substrate at the concentrations specified below were added to the wells, yielding a final total volume of 200 microliters.
Activated Protein C (aPC) Assay
aPC catalytic activity was determined using the chromogenic substrate, Pefachrome PC (delta-carbobenzloxy-D-lysine-L-prolyl-L-arginine-p-nitroaniline dihydrochloride), obtained from Pentapharm Ltd.). […] Purified human aPC was obtained from Hematologic Technologies, Inc. The enzyme was diluted into HBSA prior to assay in which the final concentration was 1.0 nM.

human plasmin, sequence (P00747 97-580): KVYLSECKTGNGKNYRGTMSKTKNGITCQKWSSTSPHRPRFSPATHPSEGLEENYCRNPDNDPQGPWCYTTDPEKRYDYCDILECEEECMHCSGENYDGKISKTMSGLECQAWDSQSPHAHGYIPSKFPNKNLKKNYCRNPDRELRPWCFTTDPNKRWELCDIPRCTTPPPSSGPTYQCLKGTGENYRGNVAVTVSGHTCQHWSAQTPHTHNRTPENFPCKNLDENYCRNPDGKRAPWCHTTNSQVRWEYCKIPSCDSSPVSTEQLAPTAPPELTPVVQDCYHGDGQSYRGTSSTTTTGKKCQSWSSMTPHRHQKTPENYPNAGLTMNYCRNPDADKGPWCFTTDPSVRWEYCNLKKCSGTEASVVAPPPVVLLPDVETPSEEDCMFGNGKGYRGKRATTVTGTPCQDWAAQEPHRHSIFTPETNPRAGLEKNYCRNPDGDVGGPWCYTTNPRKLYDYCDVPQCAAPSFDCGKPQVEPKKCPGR
human plasmin, sequence (P00747 581-810): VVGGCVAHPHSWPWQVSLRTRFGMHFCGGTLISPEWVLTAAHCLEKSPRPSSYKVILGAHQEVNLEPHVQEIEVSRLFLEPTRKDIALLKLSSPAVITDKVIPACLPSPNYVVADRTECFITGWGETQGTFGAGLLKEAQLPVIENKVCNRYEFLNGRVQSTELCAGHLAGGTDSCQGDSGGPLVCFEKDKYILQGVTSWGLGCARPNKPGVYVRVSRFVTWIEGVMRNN

For `N=C(N)NCCC[C@@H](C=O)NC(=O)Cn1cccc(NS(=O)(=O)Cc2ccccc2)c1=O` [Example 10, [3-[(benzylsulfonyl)amino]-2-oxo-1,2-dihydropyridyl]acetyl-L-argininal, trifluoroacetate salt], the half-inhibitory concentration (IC50) on human plasmin and at human aPC was more than 2.5 µM each time.
